Where “and” joins values, the source holds several entries; their conditions need not be identical. Equal values may be shown once. Toxic doses and inconclusive results are not listed. No stated cut-off is given here; in the data, active means T/C of 150% or more; inactive means T/C below 125%.
System: L1210 leukemia ip in BDF1 mice, survival T/C
Experiment: NCI In Vivo Anticancer Drug Screen. Data for tumor model L1210 Leukemia (intraperitoneal) in B6D2F1 (BDF1) mice
Settings: endpoint: mean survival time, higher = longer survival
Outline: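 Mice bearing the transplanted tumor received compound or vehicle. Survival of the treated group was divided by that of the vehicle-treated control group to give the ratio.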

[1] = dose: 50.0 mg/kg/injection, schedule: Q01DX001 (ip), vehicle: carboxymethylcellulose (CMC)
[2] = dose: 100.0 mg/kg/injection, schedule: Q01DX001 (ip), vehicle: Klucel (hydroxypropylcellulose) (HPC)
[3] = dose: 100.0 mg/kg/injection, schedule: Q01DX001 (ip), vehicle: carboxymethylcellulose (CMC)
[4] = dose: 100.0 mg/kg/injection, schedule: Q01DX001 (ip), vehicle: saline
[5] = dose: 200.0 mg/kg/injection, schedule: Q01DX001 (ip), vehicle: Klucel (hydroxypropylcellulose) (HPC)
[6] = dose: 200.0 mg/kg/injection, schedule: Q01DX001 (ip), vehicle: carboxymethylcellulose (CMC)
[7] = dose: 400.0 mg/kg/injection, schedule: Q01DX001 (ip), vehicle: Klucel (hydroxypropylcellulose) (HPC)
[8] = dose: 400.0 mg/kg/injection, schedule: Q01DX001 (ip), vehicle: carboxymethylcellulose (CMC)
[9] = dose: 400.0 mg/kg/injection, schedule: Q01DX001 (ip), vehicle: saline
[10] = dose: 12.5 mg/kg/injection, schedule: Q01DX009 (ip), vehicle: saline with Tween-80
[11] = dose: 25.0 mg/kg/injection, schedule: Q01DX009 (ip), vehicle: saline with Tween-80
[12] = dose: 200.0 mg/kg/injection, schedule: Q01DX001 (ip), vehicle: saline
[13] = dose: 100.0 mg/kg/injection, schedule: Q04DX003 (ip), vehicle: Klucel (hydroxypropylcellulose) (HPC)
[14] = dose: 200.0 mg/kg/injection, schedule: Q04DX003 (ip), vehicle: Klucel (hydroxypropylcellulose) (HPC)
[15] = dose: 400.0 mg/kg/injection, schedule: Q04DX003 (ip), vehicle: Klucel (hydroxypropylcellulose) (HPC)
[16] = dose: 100.0 mg/kg/injection, schedule: Q01DX009 (ip), vehicle: Klucel (hydroxypropylcellulose) (HPC)
[17] = dose: 200.0 mg/kg/injection, schedule: Q01DX009 (ip), vehicle: Klucel (hydroxypropylcellulose) (HPC)
[18] = dose: 400.0 mg/kg/injection, schedule: Q01DX009 (ip), vehicle: Klucel (hydroxypropylcellulose) (HPC)
[19] = dose: 100.0 mg/kg/injection, schedule: Q04DX002 (ip), vehicle: Klucel (hydroxypropylcellulose) (HPC)
[20] = dose: 200.0 mg/kg/injection, schedule: Q04DX002 (ip), vehicle: Klucel (hydroxypropylcellulose) (HPC)
[21] = dose: 400.0 mg/kg/injection, schedule: Q04DX002 (ip), vehicle: Klucel (hydroxypropylcellulose) (HPC)

Measured: T/C

O=C(OC1COC(OC(=O)c2ccccc2)C(OC(=O)c2ccccc2)C1OC(=O)c1ccccc1)c1ccccc1 (configuration not stated)
inactive: [1] 96 % of control | [2] 102 % of control | dose: 100.0 mg/kg/injection, schedule: Q01DX001 (ip), vehicle: acetone 92 % of control | [3] 102 % of control and 103 % of control | [4] 90 % of control | [5] 102 % of control | dose: 200.0 mg/kg/injection, schedule: Q01DX001 (ip), vehicle: acetone 88 % of control | [6] 94 % of control and 91 % of control | [7] 109 % of control | dose: 400.0 mg/kg/injection, schedule: Q01DX001 (ip), vehicle: acetone 90 % of control | [8] 94 % of control | [9] 95 % of control

CCCCNc1cc2c3c(c1)CCCN3CCC2
inactive: dose: 12.5 mg/kg/injection, schedule: Q01DX009 (ip), vehicle: saline 107 % of control | dose: 12.5 mg/kg/injection, schedule: Q04DX003 (ip), vehicle: saline 95 % of control | dose: 25.0 mg/kg/injection, schedule: Q01DX009 (ip), vehicle: saline 103 % of control | dose: 25.0 mg/kg/injection, schedule: Q04DX003 (ip), vehicle: saline 98 % of control | dose: 50.0 mg/kg/injection, schedule: Q04DX003 (ip), vehicle: saline 95 % of control

CCN1CC2c3cc(OC)c(OC)cc3CC(c3ccccc3)C2C1 (configuration not stated)
inactive: [10] 98 % of control | [11] 95 % of control

O=S(=O)(F)/C=C/c1ccccc1
inactive: dose: 15.0 mg/kg/injection, schedule: Q01DX015 (ip), vehicle: saline 96 % of control | dose: 30.0 mg/kg/injection, schedule: Q01DX015 (ip), vehicle: saline 96 % of control | dose: 60.0 mg/kg/injection, schedule: Q01DX015 (ip), vehicle: saline 100 % of control | dose: 120.0 mg/kg/injection, schedule: Q01DX015 (ip), vehicle: saline 96 % of control

COC(=O)c1c(C)cc(C)c(C(C)=O)c1O
inactive: [1] 96 % of control | [3] 102 % of control | [6] 104 % of control | [8] 107 % of control

CCCCCCCCCCCCCCCCCC[As](=O)(O)CCCCCCCCCCCCCCCCCC
inactive: dose: 50.0 mg/kg/injection, schedule: Q01DX001 (ip), vehicle: saline 97 % of control | [4] 101 % of control | [12] 91 % of control | [9] 101 % of control

COC(=O)C(c1ccccc1)C1(O)CCN(CC2COc3ccccc3O2)CC1 (configuration not stated)
inactive: dose: 25.0 mg/kg/injection, schedule: Q01DX001 (ip), vehicle: Klucel (hydroxypropylcellulose) (HPC) 96 % of control | dose: 50.0 mg/kg/injection, schedule: Q01DX001 (ip), vehicle: Klucel (hydroxypropylcellulose) (HPC) 93 % of control | [2] 97 % of control and 102 % of control

CC(=O)Nc1ccc(OCCCOc2ccc([N+](=O)[O-])cc2)cc1
inactive: [13] 101 % of control | [14] 95 % of control | [15] 91 % of control

Cc1ccc([N+](=O)[O-])cc1NC(=O)OCc1ccco1
inactive: [16] 103 % of control | [17] 97 % of control | [18] 94 % of control

O=C(Nc1ccccc1)OC1CCCC1
inactive: [13] 101 % of control | [14] 101 % of control | [15] 96 % of control

CCCCCC(CN(C)C)C(=O)/C=C/c1c(Cl)cccc1Cl (configuration not stated)
inactive: dose: 25.0 mg/kg/injection, schedule: Q01DX009 (ip), vehicle: Klucel (hydroxypropylcellulose) (HPC) 106 % of control

Cc1cccc(NC(=O)Nc2cccc(Cl)c2Cl)n1
inactive: [16] 92 % of control | [19] 89 % of control | [17] 92 % of control | [20] 92 % of control | [21] 103 % of control

CN(CC#N)c1ncnc(Cl)c1[N+](=O)[O-]
inactive: [1] 95 % of control | [3] 98 % of control | [6] 88 % of control | [8] 98 % of control

Cc1ccc(C(=O)NN2C(N)=NC(N)=NC2(C)C)cc1
inactive: dose: 100.0 mg/kg/injection, schedule: Q01DX009 (ip), vehicle: saline sonified 111 % of control | dose: 200.0 mg/kg/injection, schedule: Q01DX009 (ip), vehicle: saline sonified 92 % of control

O=C(CCBr)c1ccc(Cl)cc1
inactive: dose: 6.25 mg/kg/injection, schedule: Q01DX009 (ip), vehicle: saline with Tween-80 93 % of control | [10] 91 % of control | [11] 93 % of control

O=Cc1ccc2cc(Cl)ccc2n1
inactive: dose: 100.0 mg/kg/injection, schedule: Q01DX001 (ip), vehicle: other 93 % of control | dose: 200.0 mg/kg/injection, schedule: Q01DX001 (ip), vehicle: other 110 % of control | dose: 400.0 mg/kg/injection, schedule: Q01DX001 (ip), vehicle: other 106 % of control

O=S1(=O)C2CCCC1C(Cl)CC2 (configuration not stated)
inactive: dose: 15.0 mg/kg/injection, schedule: Q01DX001 (ip), vehicle: carboxymethylcellulose (CMC) 100 % of control

CC1CCC2(O)C3(C)CC(=O)OC2(C1O)C1(O)C(C)C(O)(C(C)C)C(O)C31O (configuration not stated)
inactive: dose: 5.0 mg/kg/injection, schedule: Q01DX001 (ip), vehicle: saline 101 % of control

Cc1ccc(C(C)O)cc1 (configuration not stated)
inactive: [19] 98 % of control | [20] 98 % of control | [21] 98 % of control

CCOC(=O)Nc1ccccc1
inactive: [16] 97 % of control | [13] 93 % of control | [17] 103 % of control | [14] 93 % of control | [18] 103 % of control | [15] 88 % of control

Cc1ccc(S(=O)(=O)c2ccc(C)c([N+](=O)[O-])c2)cc1[N+](=O)[O-]
inactive: [2] 104 % of control | [5] 118 % of control | [7] 96 % of control

CN(C)C(=S)SCC(=O)c1ccccc1
inactive: dose: 2.5 mg/kg/injection, schedule: Q01DX009 (ip), vehicle: saline with Tween-80 93 % of control | dose: 5.0 mg/kg/injection, schedule: Q01DX009 (ip), vehicle: saline with Tween-80 89 % of control | dose: 10.0 mg/kg/injection, schedule: Q01DX009 (ip), vehicle: saline with Tween-80 105 % of control

CCOC(=O)CC(=O)c1ccc(OC)cc1
inactive: [2] 101 % of control | [5] 106 % of control | [7] 107 % of control

C#CCC(C)OS(=O)(=O)c1ccc(C)cc1 (configuration not stated)
inactive: [4] 98 % of control | dose: 100.0 mg/kg/injection, schedule: Q04DX003 (ip), vehicle: saline 93 % of control | [12] 102 % of control | dose: 200.0 mg/kg/injection, schedule: Q04DX003 (ip), vehicle: saline 93 % of control | [9] 98 % of control | dose: 400.0 mg/kg/injection, schedule: Q04DX003 (ip), vehicle: saline 91 % of control

From PubChem BioAssay AID248 (DTP/NCI, 2004)
